US20090227607A1, “DEAZAPURINES USEFUL AS INHIBITORS OF JANUS KINASES” (priority 2006, published 2009)

Legend:
JAK-2 enzyme = JAK-2 enzyme (Homo sapiens, UniProt O60674); assay: JAK2 Inhibition Assay; type: biochemical; conditions: 15 μM poly(Glu)4Tyr, 12 μM ATP, 25° C.
How it was run: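 JAK2 kinase in HEPES pH 7.4 buffer with MgCl2, DTT, NaCl and BSA; final 15 μM poly(Glu)4Tyr and 12 μM [33P]ATP. Enzyme added to start, 20 min at 25 °C, TCA stop, filter capture and scintillation count of 33P incorporation; Ki values.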

JAK3 = molecular target: T1, JAK3 (Homo sapiens, UniProt P52333); assay: JAK3 Inhibition Assay; type: biochemical; conditions: 1 μM poly(Glu)4Tyr, 5 μM ATP, 1 nM JAK3, 25° C.; read-out: JAK3 enzyme inhibition data (Ki)
T1 sequence (P52333 1-1124): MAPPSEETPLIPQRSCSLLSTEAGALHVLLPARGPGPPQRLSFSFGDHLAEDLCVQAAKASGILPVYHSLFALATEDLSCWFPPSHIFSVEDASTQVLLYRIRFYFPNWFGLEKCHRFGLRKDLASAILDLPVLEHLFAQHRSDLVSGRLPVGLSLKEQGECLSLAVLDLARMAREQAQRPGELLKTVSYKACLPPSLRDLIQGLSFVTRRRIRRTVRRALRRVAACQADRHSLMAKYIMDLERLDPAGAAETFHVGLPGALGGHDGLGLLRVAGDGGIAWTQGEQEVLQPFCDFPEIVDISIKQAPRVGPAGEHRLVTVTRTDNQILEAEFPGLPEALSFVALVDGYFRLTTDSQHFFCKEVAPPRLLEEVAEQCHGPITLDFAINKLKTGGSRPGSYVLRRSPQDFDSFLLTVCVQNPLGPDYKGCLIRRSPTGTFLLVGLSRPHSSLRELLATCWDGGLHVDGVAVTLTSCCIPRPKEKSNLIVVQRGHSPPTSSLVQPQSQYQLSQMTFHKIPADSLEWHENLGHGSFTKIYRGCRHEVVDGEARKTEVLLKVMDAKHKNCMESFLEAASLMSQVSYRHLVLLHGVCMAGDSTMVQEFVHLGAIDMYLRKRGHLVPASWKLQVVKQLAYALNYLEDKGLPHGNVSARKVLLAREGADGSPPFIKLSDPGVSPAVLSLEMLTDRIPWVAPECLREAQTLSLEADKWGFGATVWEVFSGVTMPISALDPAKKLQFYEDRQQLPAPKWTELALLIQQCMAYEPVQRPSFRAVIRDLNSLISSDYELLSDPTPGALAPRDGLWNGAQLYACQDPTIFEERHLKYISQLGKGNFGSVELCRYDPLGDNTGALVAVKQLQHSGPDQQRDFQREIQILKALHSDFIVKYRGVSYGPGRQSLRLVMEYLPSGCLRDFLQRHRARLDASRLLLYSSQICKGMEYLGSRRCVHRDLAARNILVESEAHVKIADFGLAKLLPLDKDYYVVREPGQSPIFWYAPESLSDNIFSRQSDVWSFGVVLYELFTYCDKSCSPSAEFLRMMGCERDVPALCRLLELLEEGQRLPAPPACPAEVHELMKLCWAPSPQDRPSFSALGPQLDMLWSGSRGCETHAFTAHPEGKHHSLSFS
How it was run: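 Radiometric JAK3 (1 nM) reaction with 5 μM [33P]ATP and 1 μM poly(Glu)4Tyr in HEPES pH 7.4 buffer, run for 20 min at 25 °C. Reactions were stopped with TCA and filter-captured, and 33P incorporation was counted; values reported as Ki.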

Chain of JAK-2 enzyme (O60674 whole entry, species assumed): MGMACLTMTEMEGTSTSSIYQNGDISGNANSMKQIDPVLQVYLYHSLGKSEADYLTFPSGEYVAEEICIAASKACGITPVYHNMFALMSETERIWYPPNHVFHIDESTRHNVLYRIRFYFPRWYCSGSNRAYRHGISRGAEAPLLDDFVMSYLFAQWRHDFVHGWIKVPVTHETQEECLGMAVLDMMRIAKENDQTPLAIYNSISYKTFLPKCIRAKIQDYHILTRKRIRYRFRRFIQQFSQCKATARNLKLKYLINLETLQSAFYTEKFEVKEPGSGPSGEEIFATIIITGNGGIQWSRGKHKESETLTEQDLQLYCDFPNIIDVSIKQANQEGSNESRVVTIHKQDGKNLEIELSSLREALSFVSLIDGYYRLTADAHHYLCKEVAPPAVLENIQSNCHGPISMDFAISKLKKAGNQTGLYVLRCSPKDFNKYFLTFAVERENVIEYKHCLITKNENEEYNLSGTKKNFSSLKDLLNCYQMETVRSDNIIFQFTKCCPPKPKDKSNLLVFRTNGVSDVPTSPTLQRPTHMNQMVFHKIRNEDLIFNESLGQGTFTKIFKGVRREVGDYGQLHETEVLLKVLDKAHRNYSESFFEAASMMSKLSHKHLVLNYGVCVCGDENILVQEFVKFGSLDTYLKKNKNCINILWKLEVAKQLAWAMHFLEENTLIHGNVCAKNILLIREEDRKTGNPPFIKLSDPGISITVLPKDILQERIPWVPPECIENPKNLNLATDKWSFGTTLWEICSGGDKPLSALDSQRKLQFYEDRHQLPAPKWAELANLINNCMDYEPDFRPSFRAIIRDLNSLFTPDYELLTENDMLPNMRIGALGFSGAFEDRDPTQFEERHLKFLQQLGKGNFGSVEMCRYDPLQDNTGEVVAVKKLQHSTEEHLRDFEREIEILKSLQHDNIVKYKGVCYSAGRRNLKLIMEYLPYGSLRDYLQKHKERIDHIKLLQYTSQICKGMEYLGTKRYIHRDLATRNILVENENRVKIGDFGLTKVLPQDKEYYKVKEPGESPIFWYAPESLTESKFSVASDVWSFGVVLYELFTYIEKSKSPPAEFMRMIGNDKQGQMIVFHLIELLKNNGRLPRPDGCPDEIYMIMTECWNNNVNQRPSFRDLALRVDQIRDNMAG

Structure (SMILES) | Ki (JAK-2 enzyme) [nM] | Ki (JAK3) [nM]
O=C1[C@H]2CCCC[C@H]2C(=O)N1c1nc(-c2ncnc3[nH]ccc23)cs1 [Compound 181] | 100 to 500 | 100 to 500
COC(=O)[C@@H]1CC[C@H](C(=O)Nc2nc(-c3ncnc4[nH]ccc34)cs2)C1 [Compound 182] | < 100 | 100 to 500
N#CCCN(CC1CC1)C(=O)c1coc(-c2ncnc3[nH]ccc23)c1 [Compound 183] | < 100 | < 100
CCC1CC[C@@H](CC)N1C(=O)c1cc(-c2ncnc3[nH]ccc23)c[nH]1 (stereo partly drawn) [Compound 184] | < 100 | 100 to 500
CC[C@@H]1CC[C@@H](CC)N1C(=O)c1cc(-c2ncnc3[nH]ccc23)c[nH]1 [Compound 185] | < 100 | 100 to 500
O=C(c1cc(-c2ncnc3[nH]ccc23)c[nH]1)N(CC1CCCC1)CC(F)(F)F [Compound 186] | < 100 | 100 to 500
CC(C)CN(CCC#N)C(=O)c1cc(-c2ncnc3[nH]ccc23)c[nH]1 [Compound 187] | < 100 | < 100
O=C(c1cc(-c2ncnc3[nH]ccc23)c[nH]1)N(CCC(F)(F)F)C1CCCC1 [Compound 188] | < 100 | 100 to 500
CC#CCN(CC(C)C)C(=O)c1cc(-c2ncnc3[nH]ccc23)c[nH]1 [Compound 189] | < 100 | < 100
CC#CCN(C(=O)c1cc(-c2ncnc3[nH]ccc23)c[nH]1)C1CCCCC1 [Compound 190] | 100 to 500 | 500 to 5000
O=C(c1ccc(-c2ncnc3[nH]ccc23)o1)N(CC1CCCC1)CC(F)(F)F [Compound 191] | < 100 | < 100
CC(C)CN(CCC#N)C(=O)c1ccc(-c2ncnc3[nH]ccc23)o1 [Compound 192] | < 100 | < 100
O=C(c1ccc(-c2ncnc3[nH]ccc23)o1)N(CCC(F)(F)F)C1CCCC1 [Compound 193] | < 100 | < 100
CC[C@@H]1CC[C@@H](CC)N1C(=O)c1ccc(-c2ncnc3[nH]ccc23)o1 [Compound 194] | < 100 | < 100
O=C(c1coc(-c2ncnc3[nH]ccc23)c1)N(CC1CC1)CC(F)(F)F [Compound 195] | < 100 | 100 to 500
O=C(c1coc(-c2ncnc3[nH]ccc23)c1)N(CCC(F)(F)F)CC1CC1 [Compound 196] | < 100 | 100 to 500
CC1CC[C@@H](C)N1C(=O)c1coc(-c2ncnc3[nH]ccc23)c1 (stereo partly drawn) [Compound 197] | < 100 | 500 to 5000
CCCCN(CC)C(=O)c1cc(-c2ncnc3[nH]cc(Cl)c23)c[nH]1 [Compound 198] | < 100 | < 100
CCN(Cc1ccccc1)C(=O)c1cc(-c2ncnc3[nH]cc(Cl)c23)c[nH]1 [Compound 199] | < 100 | < 100
COCCN(C)C(=O)c1cc(-c2ncnc3[nH]cc(C)c23)c[nH]1 [Compound 200] | 100 to 500 | 500 to 5000
CCCCN(CC)C(=O)c1cc(-c2ncnc3[nH]cc(C)c23)c[nH]1 [Compound 201] | < 100 | 100 to 500
CCN(Cc1ccccc1)C(=O)c1cc(-c2ncnc3[nH]cc(C)c23)c[nH]1 [Compound 202] | < 100 | 100 to 500
Cc1c[nH]c2ncnc(-c3c[nH]c(C(=O)N(C)CCc4ccccc4)c3)c12 [Compound 203] | < 100 | 100 to 500
Cc1c[nH]c2ncnc(-c3c[nH]c(C(=O)N4C(C)C=CC4C)c3)c12 (stereo not drawn) [Compound 204] | < 100 | 100 to 500
CCCCCN(C)C(=O)c1cc(-c2ncnc3[nH]cc(C)c23)c[nH]1 [Compound 205] | < 100 | 100 to 500
CCCN(CC)C(=O)c1cc(-c2ncnc3[nH]cc(C)c23)c[nH]1 [Compound 206] | < 100 | 100 to 500
CCN(CCC#N)C(=O)c1cc(-c2ncnc3[nH]cc(C)c23)c[nH]1 [Compound 207] | < 100 | 100 to 500

Other lines, results leading:

Ki (JAK-2 enzyme) [nM] | Ki (JAK3) [nM] | Structure (SMILES)
< 100 | < 100 | Cc1c[nH]c2ncnc(-c3c[nH]c(C(=O)N(CCC(F)(F)F)CC4CC4)c3)c12 [Compound 208]
< 100 | 100 to 500 | CCCCN(CCC)C(=O)c1cc(-c2ncnc3[nH]cc(C)c23)c[nH]1 [Compound 209]
< 100 | < 100 | CC(C)N(CCC(F)(F)F)C(=O)c1ccc(-c2ncnc3[nH]ccc23)o1 [Compound 210]
< 100 | < 100 | CC(C)CN(CCC(F)(F)F)C(=O)c1ccc(-c2ncnc3[nH]ccc23)o1 [Compound 211]
< 100 | < 100 | O=C(c1ccc(-c2ncnc3[nH]ccc23)o1)N(CCC(F)(F)F)CC1CCCC1 [Compound 212]
< 100 | < 100 | C[C@@H]1CC[C@@H](C)N1C(=O)c1cc(-c2ncnc3[nH]cc(Cl)c23)c[nH]1 [Compound 213]
< 100 | < 100 | O=C(NCc1ccccc1)c1cc(-c2ncnc3[nH]ccc23)c[nH]1 [Compound 214]
< 100 | < 100 | O=C(c1ccc(-c2ncnc3[nH]ccc23)o1)N(CCC(F)(F)F)CC1CCC1 [Compound 215]
< 100 | < 100 | O=C(c1ccc(-c2ncnc3[nH]ccc23)o1)N(CC1CCC1)CC(F)(F)F [Compound 216]
< 100 | < 100 | C=CCN(CC=C)C(=O)c1ccc(-c2ncnc3[nH]ccc23)o1 [Compound 217]
< 100 | 100 to 500 | CC1CCCN1C(=O)c1ccc(-c2ncnc3[nH]ccc23)o1 (stereo not drawn) [Compound 218]
100 to 500 | 500 to 5000 | O=C(c1ccc(-c2ncnc3[nH]ccc23)o1)N1CCCC1 [Compound 219]
< 100 | 100 to 500 | C=CCN(C(=O)c1ccc(-c2ncnc3[nH]ccc23)o1)[C@H](C)c1ccccc1 [Compound 220]
500 to 5000 | 500 to 5000 | NC(=O)C1CCCN1C(=O)c1ccc(-c2ncnc3[nH]ccc23)o1 (stereo not drawn) [Compound 221]
< 100 | < 100 | C=CCN(C(=O)c1ccc(-c2ncnc3[nH]ccc23)o1)[C@@H](C)c1ccccc1 [Compound 222]
< 100 | < 100 | Cn1cc(-c2ncnc3[nH]ccc23)cc1C(=O)N(CCC(F)(F)F)CC1CCC1 [Compound 223]
< 100 | 100 to 500 | C[C@@H]1CC[C@@H](C)N1C(=O)c1cc(-c2ncnc3[nH]ccc23)cn1C [Compound 224]
< 100 | < 100 | Cn1cc(-c2ncnc3[nH]ccc23)cc1C(=O)N(CCC(F)(F)F)CC1CC1 [Compound 225]
< 100 | < 100 | Cn1cc(-c2ncnc3[nH]ccc23)cc1C(=O)N(CCC#N)CC1CC1 [Compound 226]
< 100 | < 100 | O=C(c1cc(-c2ncnc3[nH]cc(Cl)c23)c[nH]1)N(CCC(F)(F)F)CC1CC1 [Compound 227]
< 100 | < 100 | Cn1cc(-c2ncnc3[nH]ccc23)cc1C(=O)N(CC1CC1)CC(F)(F)F [Compound 228]
< 100 | 100 to 500 | O=C(c1cc(-c2ncnc3[nH]ccc23)co1)N(CCC(F)(F)F)CC1CC1 [Compound 229, N-(cyclopropylmethyl)-4-(7H-pyrrolo[2,3-d]pyrimidin-4-yl)-N-(3,3,3-trifluoropropyl)furan-2-carboxamide]
< 100 | 100 to 500 | N#CCCN(CCC(F)(F)F)C(=O)c1cc(-c2ncnc3[nH]ccc23)co1 [Compound 230, N-(2-cyanoethyl)-4-(7H-pyrrolo[2,3-d]pyrimidin-4-yl)-N-(3,3,3-trifluoropropyl)furan-2-carboxamide]
< 100 | < 100 | O=C(c1cc(-c2ncnc3[nH]ccc23)co1)N(CC1CC1)CC(F)(F)F [Compound 231, N-(cyclopropylmethyl)-4-(7H-pyrrolo[2,3-d]pyrimidin-4-yl)-N-(2,2,2-trifluoroethyl)furan-2-carboxamide]
